Results on 20 molecules are retold here after ChEMBL document CHEMBL3813656, “Allosteric Glutaminase Inhibitors Based on a 1,4-Di(5-amino-1,3,4-thiadiazol-2-yl)butane Scaffold” (ACS Med Chem Lett, 2016).

Series [1] has as its target T1, Glutaminase kidney isoform, mitochondrial (Homo sapiens, UniProt O94925).
T1 sequence (O94925 whole entry): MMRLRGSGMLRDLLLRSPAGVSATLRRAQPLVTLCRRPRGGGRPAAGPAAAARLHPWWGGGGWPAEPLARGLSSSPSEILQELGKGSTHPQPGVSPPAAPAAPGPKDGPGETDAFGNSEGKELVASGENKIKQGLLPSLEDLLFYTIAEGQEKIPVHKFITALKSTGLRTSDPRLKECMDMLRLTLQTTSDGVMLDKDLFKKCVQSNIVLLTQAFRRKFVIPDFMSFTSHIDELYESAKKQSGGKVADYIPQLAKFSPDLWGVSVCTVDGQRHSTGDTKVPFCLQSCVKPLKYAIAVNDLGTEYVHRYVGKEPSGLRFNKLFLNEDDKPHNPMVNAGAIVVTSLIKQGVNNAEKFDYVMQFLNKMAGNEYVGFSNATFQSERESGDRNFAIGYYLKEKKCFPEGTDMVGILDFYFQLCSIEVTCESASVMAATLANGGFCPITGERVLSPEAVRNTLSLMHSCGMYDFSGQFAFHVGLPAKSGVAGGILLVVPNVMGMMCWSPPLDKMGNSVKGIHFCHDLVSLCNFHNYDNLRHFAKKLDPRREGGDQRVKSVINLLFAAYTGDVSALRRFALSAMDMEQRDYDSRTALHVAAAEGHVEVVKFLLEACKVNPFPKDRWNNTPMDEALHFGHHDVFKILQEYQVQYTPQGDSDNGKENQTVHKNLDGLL
Description: Inhibition of human kidney type glutaminase (124 to 669 residues) using L-[3H]-glutamine as substrate after 45 mins by topcount method.

Series [2] in a line: Aqueous solubility of the compound in PBS buffer at pH 7.4 at 37 degC after 24 hrs by LC/MS analysis. The settings on record: pH 7.4, 24 h. The format is physicochemical.
Series [3] concerns the target T2, Glutaminase kidney isoform, mitochondrial (Homo sapiens) (UniProt O94925).
T2 sequence (whole entry): T1 sequence (O94925 whole entry)
Description: Time-dependent inhibition of human kidney type glutaminase (124 to 669 residues) using L-[3H]-glutamine as substrate by topcount method

Converted amounts (≈) assume the structure as drawn. The source made the active and inactive calls. The rule behind the calls is not given here.

In series [1], `CN(C)c1ccc(CC(=O)Nc2nnc(CCCCc3nnc(NC(=O)Cc4ccccc4)s3)s2)cc1` gave an IC50 of 3 µM.

`O=C(Cc1ccccc1)Nc1nnc(CCCCc2nnc(NC(=O)Cc3ccccn3)s2)s1`: the IC50 in series [1] worked out at 0.07 µM.

In series [1], `CC(=O)Oc1ccc(CC(=O)Nc2nnc(CCCCc3nnc(NC(=O)Cc4ccccc4)s3)s2)cc1` gave an IC50 of 0.54 µM.

`O=C(Cc1ccccc1)Nc1nnc(CCCCc2nnc(NC(=O)Cc3cccc(O)c3)s2)s1` registered an IC50 in series [1] of 0.12 µM.

Consider `CC(C)(C)OC(=O)Nc1ccc(CC(=O)Nc2nnc(CCCCc3nnc(NC(=O)Cc4ccccc4)s3)s2)cc1`, for which the IC50 in series [1] amounted to 0.45 µM.

`O=C(Cc1ccc(O)cc1)Nc1nnc(CCCCc2nnc(NC(=O)Cc3cccc(OC(F)(F)F)c3)s2)s1` showed an IC50 in series [1] of 0.51 µM.

As to `O=C(Cc1ccc(O)cc1)Nc1nnc(CCCCc2nnc(NC(=O)Cc3cccnc3)s2)s1`, the midpoint of inhibition in series [1], the IC50, lay at 0.14 µM.

`COc1ccc(CC(=O)Nc2nnc(CCCCc3nnc(NC(=O)Cc4ccccc4)s3)s2)cc1` gave an IC50 in series [1] of 0.21 µM.

Molecule `O=C(Cc1ccc(O)cc1)Nc1nnc(CCCCc2nnc(NC(=O)Cc3ccc(O)cc3)s2)s1` displayed an IC50 in series [1] of 0.12 µM.

`O=C(Cc1ccccc1)Nc1nnc(CCCCc2nnc(NC(=O)Cc3ccc(OCc4ccccc4)cc3)s2)s1` returned an IC50 in series [1] above 25 µM.

`O=C(Cc1ccccc1)Nc1nnc(CCCCc2nnc(NC(=O)Cc3cccnc3)s2)s1`: the IC50 in series [1] is 0.07 µM.

In series [1], `O=C(Cc1ccccc1)Nc1nnc(CCCCc2nnc(NC(=O)Cc3ccc(Oc4ccccc4)cc3)s2)s1` came in with an IC50 of 0.38 µM.

As to `Nc1ccc(CC(=O)Nc2nnc(CCCCc3nnc(NC(=O)Cc4ccccc4)s3)s2)cc1`, inhibition in series [1] was half-maximal at 2.3 µM (IC50).

`CC(=O)Oc1ccc(CC(=O)Nc2nnc(CCCCc3nnc(NC(=O)Cc4cccc(OC(F)(F)F)c4)s3)s2)cc1` gave an IC50 in series [1] of 2 µM.

As for `CC(=O)Oc1ccc(CC(=O)Nc2nnc(CCCCc3nnc(NC(=O)Cc4cccnc4)s3)s2)cc1`, the IC50 in series [1] is 0.12 µM.

`O=C(Cc1ccccc1)Nc1nnc(CCCCc2nnc(NC(=O)Cc3ccc(C(=O)O)cc3)s2)s1` had an IC50 in series [1] of 0.11 µM.

On to `O=C(Cc1ccccc1)Nc1nnc(CCCCc2nnc(NC(=O)Cc3ccc(O)cc3)s2)s1`, for which the IC50 in series [1] was 0.07 µM. This molecule also gave a solubility in series [2] of 17 µg/mL (≈ 33.4 µM). Moreover, the TDI result in series [3] is “inactive”.

Turning to `CC(=O)Oc1ccc(CC(=O)Nc2nnc(CCCCc3nnc(NC(=O)Cc4ccc(OC(C)=O)cc4)s3)s2)cc1`, in series [1], it took 1.2 µM to reach half-maximal inhibition (IC50).

For the molecule `COC(=O)c1ccc(CC(=O)Nc2nnc(CCCCc3nnc(NC(=O)Cc4ccccc4)s3)s2)cc1`, in series [1], the 50% inhibitory concentration (IC50) was found to be 13 µM.

`O=C(Cc1ccccc1)Nc1nnc(CCCCc2nnc(NC(=O)Cc3ccc(Br)cn3)s2)s1` registered an IC50 in series [1] of 0.17 µM.

The term IC50 denotes the point on the concentration scale where inhibition reaches its midpoint. A high value points to a need for much substance. As usually defined, the solubility is the dissolved amount per volume that the medium holds.
